For assay [1], the system named is Raji Burkitt's lymphoma cells. Put plainly: Proliferation assay (MTT, 72 h). The class given is cell-based. As to conditions: Homo sapiens, 72 h incubation, mean ±SD (3 experiments). On the procedure: (§1) The human cancer cell types (neuroepithelioma (SK-N-MC), colon cancer (HCT116 with wild-type p53 (p53^+/+)), Burkitt's lymphoma (Raji) and cervical carcinoma (HeLa)) cells and normal human dermal fibroblasts (NHDF) were obtained from the American Type Culture Collection (ATCC, Manassas, VA, USA). HCT116 null p53 (p53^−/−) cells were obtained from the Maria Sklodowska-Curie Memorial Cancer Center and Institute of Oncology, Poland.
(§2) The SK-N-MC cells were cultured in minimum essential medium (MEM; Life Technologies, Grand Island, New York, USA) containing 10% (v/v) fetal bovine serum (FBS; Life Technologies), 1 mM sodium pyruvate (Life Technologies), 1% (v/v) non-essential amino acids (Life Technologies), 2 mM L-glutamine (Life Technologies), 100 U/mL penicillin (Life Technologies), 100 µg/mL streptomycin (Life Technologies) and 0.28 µg/mL fungizone (Bristol Myers Squibb Pharmaceuticals, Montreal, Canada). The HCT116 and NHDF cells were grown in Dulbecco's modified Eagle's medium (DMEM; Sigma-Aldrich) supplemented with 12% (v/v) heat-inactivated FBS (HCT116; Life Technologies) or 15% (v/v) FBS (NHDF; Life Technologies), 100 µg/mL of gentamicin (Polfa Warszawa S.A., Warsaw, Poland), 100 µg/mL of streptomycin (Polfa) and 100 U/mL of penicillin (Polfa). The Raji and HeLa cells were cultured in Roswell Park Memorial Institute medium (RPMI-1640; Sigma-Aldrich) with the addition of 10% (v/v) heat-inactivated FBS (Life Technologies) and the supplements described for SK-N-MC cells above. All cell lines were cultured under standard conditions at 37°C in a humidified atmosphere at 5% CO2 and were subcultured every 3–4 days as required.
(§3) The cells were seeded in 96-well plates (SK-N-MC: 1.5×10^4 cells/well; HeLa: 5.0×10^3 cells/well; Raji: 3.0×10^3 cells/well; HCT116: 3.5×10^3 cells/well; NHDF: 3.0×10^3 cells/well) 24 h prior to the addition of the novel compounds. The assays were performed using a 72 h (SK-N-MC, Raji, HeLa) or 96 h (HCT 116, NHDF) incubation period with the agents at 37°C. […] Additionally, DFO and Dp44mT were included as positive controls in all experiments as their activity is well characterized, [42], [50].
(§4) Chelator stock solutions were prepared in DMSO and diluted in media so that the final [DMSO] <0.05%. The results were expressed as a percentage of the control and the resulting IC50 values were calculated using GraphPad Prism 5 (GraphPad Software, Inc., La Jolla, CA, USA). The IC50 was defined as the concentration necessary to reduce the absorbance to 50% of the untreated control. Each individual compound was tested in triplicate in a single experiment, with each experiment being repeated three times. After incubation of HCT 116 and NHDF cells with the tested compounds, 20 µL of the CellTiter 96 Aqueous One Solution - MTS (Promega, Madison, WI, USA) solution was added to each well (with 100 µL of DMEM without phenol red) and incubated for 1 h/37°C. The optical density of the samples was analyzed at 490 nm.
(§5) MTT (3-[4,5-dimethylthiazol-2-yl]-2,5-diphenyltetrazolium bromide) was used to evaluate the anti-proliferative effects of the chelators in SK-N-MC and Raji cells. Following incubation with the investigated compounds, 10 µL of MTT (5 mg/mL in PBS; Sigma-Aldrich) was added to each well. After a 2 h (SK-N-MC) or 4 h (Raji) incubation, the plates were centrifuged, and the cells were lysed with 100 µL of 10% SDS-50% isobutanol in 0.01 M HCl (SK-N-MC) or DMSO (Raji). The absorbance was measured at 570 nm. The anti-proliferative effects of these novel agents on HeLa cells were estimated using crystal violet staining (0.5% crystal violet solution for 10 min). Finally, the wells were rinsed with water and the cells were lysed with 2% SDS. The optical density of the samples was analyzed at 595 nm.

Assay [2] concerns SK-N-MC neuroepithelioma cells. Put plainly: Proliferation assay (MTT, 72 h). Format: cell-based. As to conditions: Homo sapiens, 72 h incubation, mean ±SD (3 experiments). On the procedure:
as §1, §2, §3, §4, §5

Assay [3] concerns HCT116 p53−/− colon cancer cells. Put plainly: Proliferation assay (MTS, 96 h). Format: cell-based, human. As to conditions: Homo sapiens, HCT-116, 96 h, 96 h incubation, MTS; mean ±SD (3 experiments). As for the experimental part:
as §1, §2, §3, §4

Assay [4] deals with HCT116 p53+/+ colon cancer cells. Put plainly: Proliferation assay (MTS, 96 h). Format: cell-based, human. The settings on record: Homo sapiens, HCT-116; 96 h incubation, MTS; mean ±SD (3 experiments). On the procedure:
as §1, §2, §3, §4

The test system of assay [5] is HeLa cervical carcinoma cells. Put plainly: Proliferation assay (crystal violet, 72 h). Format: cell-based. As to conditions: Homo sapiens, 72 h incubation, mean ±SD (3 experiments). On the procedure: as §1, §2, §3, §4, §5
Assay [6] relates to normal human dermal fibroblast (NHDF) cells. Put plainly: Proliferation assay (MTS, 96 h), normal mortal cells. The class given is cell-based. The settings on record: Homo sapiens, NHDF, 96 h, 96 h incubation, mean ±SD (3 experiments). As for the experimental part: as §1, §2, §3, §4
Assay [7] can be described thus: Ascorbate oxidation assay (iron complexes). The class given is biochemical. The settings on record: iron complex; for Ascorbate oxidation (% of the control): FeIII 10 µM, ascorbate 100 µM. As for the experimental part: The ability of the iron complexes of the novel ligands to mediate the oxidation of the physiological substrate, ascorbate, was examined using established methods, [18], [22], [52], [53]. Ascorbic acid (100 µM) was prepared immediately prior to each experiment and was incubated in the presence of Fe^III (10 µM; as FeCl3), the chelator (1–60 µM) and a 50-fold molar excess of citrate (500 µM). The absorbance at 265 nm was measured after 10 and 40 min and the difference in absorbance at these time points was calculated. The results of these experiments were expressed as iron-binding equivalents (IBE) due to the different denticity of the chelators examined. The chelators, Dp44mT, DFO and ethylenediaminetetraacetic acid (EDTA) were used as controls as the ability of their iron complexes to oxidize ascorbate has been extensively characterized, [15], [52], [53].
The ability of the iron complexes of the novel TSCs to catalyze the oxidation of the physiological substrate, ascorbate, was important to assess as redox cycling may play a critical role in their anti-proliferative activity, [15], [18], [52], [53]. Thus, the oxidation of ascorbate mediated by the iron complexes of series 1–6 were examined in comparison to the iron complexes of the control compounds, DFO, EDTA and Dp44mT, as the ability of the latter to oxidize ascorbate is well characterized, [15], [52], [53], [68]. The results were expressed as a percentage of the control (no chelator) at iron-binding equivalents (IBEs) of 0.1 (excess “free” iron), 1 (iron-chelator complexes with a fully filled coordination sphere), or 3 (excess free chelator), due to the different denticity of the chelators examined (Fig. 10).
Figure 10 Effect of the iron complexes of (A) series 1, (B) series 2, (C) series 3, (D) series 4, (E) series 5 and (F) series 6 chelators, relative to DFO, Dp44mT and EDTA, on ascorbate oxidation. Chelators at iron-binding equivalent (IBE) ratios of 0.1, 1, and 3 were incubated in the presence of Fe^III (10 µM) and ascorbate (100 µM). The UV-Vis absorbance at 265 nm was recorded after 10 and 40 min, and the difference between the time points was calculated. Results are mean ±SD (3 experiments).

The values below come from article PMC4199632, “Exploring the Anti-Cancer Activity of Novel Thiosemicarbazones Generated through the Combination of Retro-Fragments: Dissection of Critical Structure-Activity Relationships” (PLoS ONE, 2014).

One may read the IC50 as the concentration at which inhibition is half-maximal.

Regarding `CCN1CCN(C(=S)N/N=C/c2ccccc2O)CC1` [6a], the IC50 in assay [1] was 10.2 ± 6.6 µM; in assay [2], more than 6.25 µM; in assay [3] it was more than 25 µM; in assay [4], more than 25 µM; in assay [5] it was 22.1 ± 5.4 µM; in assay [6], more than 25 µM. Further, the “Ascorbate oxidation compared with controls” value in assay [7] (IBE 3) is “decreased ascorbate oxidation relative to the control”.
Turning to `S=C(N/N=C/c1cnc2ccccc2n1)N1CCN(c2ccccn2)CC1` [5d], the IC50 turned out to be 0.49 ± 0.09 µM in assay [1]; 2.33 ± 0.09 µM in assay [2]; 9.41 ± 1.04 µM in assay [3]; 9.4 ± 0.8 µM in assay [4]; 1.78 ± 0.77 µM in assay [5]; 7.13 ± 0.82 µM in assay [6]. Further, the “Ascorbate oxidation compared with controls” value in assay [7] (IBE 3) was “decreased ascorbate oxidation relative to the control”.
As for `Oc1ccc2cccnc2c1/C=N/NC(=S)N1CCN(c2ccccc2)CC1` [4b], the IC50 was found to be 2.23 ± 1.2 µM in assay [1]; 4.46 ± 0.78 µM in assay [2]; 8.88 ± 2.53 µM in assay [3]; 7.45 ± 0.66 µM in assay [4]; 4.38 ± 0.95 µM in assay [5]; 10.1 ± 1.2 µM in assay [6].
Consider `Oc1cccc2ccc(/C=N/NC(=S)N3CCN(c4ccccc4)CC3)nc12` [3b], for which the IC50 in assay [1] is 0.19 ± 0.02 µM; in assay [2] it was more than 6.25 µM; in assay [3], 4.67 ± 2.04 µM; in assay [4] it was 4.18 ± 1.46 µM; in assay [5] it was 8.45 ± 2.09 µM; in assay [6] it was 8.88 ± 1.07 µM.
Regarding `O=C(O)CN(CCN(CC(=O)O)CC(=O)O)CC(=O)O` [EDTA, ethylenediaminetetraacetic acid, reference compound], the figures for the “Ascorbate oxidation (% of the control)” value in assay [7] (IBE 0.1), in assay [7] (IBE 1) and in assay [7] (IBE 3) were 208%, 449% and 936%, respectively.
For `S=C(N/N=C/c1ccc2ccccc2n1)N1CCN(c2cnccn2)CC1` [2e], the IC50 in assay [1] stood at 0.29 ± 0.11 µM; in assay [2] it was 0.48 ± 0.1 µM; in assay [3], 0.48 ± 0.15 µM; in assay [4] it was 0.088 ± 0.044 µM; in assay [5] it was 1.56 ± 0.44 µM; in assay [6] it was 9.44 ± 3.84 µM. Also, in assay [7] (IBE 3), the “Ascorbate oxidation (% of the control)” value is listed as 200–265%.
On to `Oc1ccc2cccnc2c1/C=N/NC(=S)N1CCN(c2ccccn2)CC1` [4d], for which the IC50 in assay [1] was 1.55 ± 0.4 µM; in assay [2] it was 4.54 ± 1.6 µM; in assay [3], 6.84 ± 5.48 µM; in assay [4], 9.15 ± 1.19 µM; in assay [5] it was 2.73 ± 0.55 µM; in assay [6] it was 10.1 ± 2.7 µM.
Regarding `Oc1ccccc1/C=N/NC(=S)N1CCN(c2cnccn2)CC1` [6e], the IC50 in assay [1] is 9.83 ± 2.05 µM; in assay [2], more than 6.25 µM; in assay [3], 10.7 ± 1 µM; in assay [4] it was 10.9 ± 0.7 µM; in assay [5], 19.2 ± 2.5 µM; in assay [6] it was more than 25 µM.
`CCN1CCN(C(=S)N/N=C/c2ccc3cccc(O)c3n2)CC1` [3a]: the concentration for half-maximal inhibition (IC50) in assay [1] worked out at 0.2 ± 0.02 µM; in assay [2], 0.82 ± 0.61 µM; in assay [3], 8.83 ± 0.63 µM; in assay [4], 9.25 ± 1.42 µM; in assay [5] it was 3.41 ± 1.46 µM; in assay [6] it was 15.8 ± 4.6 µM. Besides, the “Ascorbate oxidation compared with controls” value in assay [7] (IBE 3) is reported as “increased levels of ascorbate oxidation”.
Take `S=C(N/N=C/c1ccc2ccccc2n1)N1CCOCC1` [2c]: the IC50 is 0.06 ± 0.01 µM in assay [1]; 1.4 ± 0.69 µM in assay [2]; 1.56 ± 1.12 µM in assay [3]; 1.49 ± 0.02 µM in assay [4]; 1.75 ± 0.33 µM in assay [5]; 3.27 ± 0.88 µM in assay [6].
On to `CN(C(=S)N/N=C/c1c(O)ccc2cccnc12)C1CCCCC1` [4f], for which the IC50 is 0.46 ± 0.23 µM in assay [1]; more than 6.25 µM in assay [2]; 18.9 ± 3.6 µM in assay [3]; 19 ± 0.5 µM in assay [4]; 13.3 ± 1 µM in assay [5]; 9.18 ± 3.68 µM in assay [6].
For the compound `S=C(N/N=C/c1cnc2ccccc2n1)N1CCN(c2ccccc2)CC1` [5b], the IC50 came out at 0.5 ± 0.05 µM in assay [1]; 3.44 ± 1.12 µM in assay [2]; 2.24 ± 1.47 µM in assay [3]; 3.92 ± 0.74 µM in assay [4]; 6.05 ± 2.73 µM in assay [5]; 9.61 ± 0.9 µM in assay [6].
Regarding `Oc1ccc2cccnc2c1/C=N/NC(=S)N1CCN(c2cnccn2)CC1` [4e], the IC50 amounted to 4.55 ± 2.52 µM in assay [1]; 4.17 ± 1.44 µM in assay [2]; 9.44 ± 1.35 µM in assay [3]; 10.1 ± 0.7 µM in assay [4]; 3.49 ± 0.04 µM in assay [5]; 9.56 ± 1.44 µM in assay [6].
On to `Oc1cccc2ccc(/C=N/NC(=S)N3CCN(c4ccccn4)CC3)nc12` [3d], for which the IC50 was 0.12 ± 0.04 µM in assay [1]; more than 6.25 µM in assay [2]; 8.46 ± 0.25 µM in assay [3]; 8.41 ± 1.78 µM in assay [4]; 6.59 ± 0.13 µM in assay [5]; 10.2 ± 2.4 µM in assay [6].
Turning to `CCN1CCN(C(=S)NN=C(c2ccccn2)c2ccccn2)CC1` [1a], the IC50 turned out to be 0.08 ± 0.02 µM in assay [1]; 0.18 ± 0.09 µM in assay [2]; 0.04 ± 0.003 µM in assay [3]; 0.02 ± 0.002 µM in assay [4]; 0.48 ± 0.31 µM in assay [5]; 0.017 ± 0.004 µM in assay [6].
As for `CCN1CCN(C(=S)N/N=C/c2cnc3ccccc3n2)CC1` [5a], the IC50 stood at 0.11 ± 0.02 µM in assay [1]; 8.72 ± 1.64 µM in assay [3]; 6.15 ± 1.28 µM in assay [4]; 1.12 ± 0.03 µM in assay [5]; 2.73 ± 1.77 µM in assay [6].
